The test system of the assay is a variety of test species. Kind of assay: Post-emergence herbicidal activity (glasshouse, sprayed 8 days after sowing, evaluated after 13 days). The settings on record: 1000 g/ha, scale 0-5. Type of assay: in vivo. The protocol:
Seeds of a variety of test species were sown in standard soil in pots. After 8 days cultivation (post-emergence) under controlled conditions in a glasshouse (at 24/16° C., day/night; 14 hours light; 65% humidity), the plants were sprayed with an aqueous spray solution derived from the formulation of the technical active ingredient in acetone/water (50:50) solution containing 0.5% Tween 20 (polyoxyethelyene sorbitan monolaurate, CAS RN 9005-64-5). The test plants were then grown in a glasshouse under controlled conditions (at 24/16° C., day/night; 14 hours light; 65% humidity) and watered twice daily. After 13 days, the test was evaluated (5=total damage to plant; 0=no damage to plant).

With `CC1=C(Cl)C(O)N(c2nn(C)c3c2C2CCC3C2)C1=O` (stereo not drawn) [Compound B29], the “Post-emergence herbicidal damage score, ABUTH (Abutilon theophrasti)” value is 5; the “Post-emergence herbicidal damage score, ALOMY (Alopecurus myosuroides)” value is 4; the “Post-emergence herbicidal damage score, AMARE (Amaranthus retroflexus)” value stood at 5; the “Post-emergence herbicidal damage score, ECHCG (Echinochloa crus-galli)” value stood at 5. In addition, the “Post-emergence herbicidal damage score, SETFA (Setaria faberi)” value was found to be 5 and the “Post-emergence herbicidal damage score, ZEAMX (Zea mays)” value worked out at 3.
Take `CC1=C(Cl)C(O)N(c2ccn(C)n2)C1=O` (stereo not drawn) [Compound B31]: the “Post-emergence herbicidal damage score, ABUTH (Abutilon theophrasti)” value came to 0; the “Post-emergence herbicidal damage score, ALOMY (Alopecurus myosuroides)” value is 1; the “Post-emergence herbicidal damage score, AMARE (Amaranthus retroflexus)” value amounted to 3; the “Post-emergence herbicidal damage score, ECHCG (Echinochloa crus-galli)” value was determined as 1. The “Post-emergence herbicidal damage score, SETFA (Setaria faberi)” value was 1 and the “Post-emergence herbicidal damage score, ZEAMX (Zea mays)” value was determined as 1.
As for `CC1=C(Cl)C(O)N(c2cc(Cc3ccccc3)n(C)n2)C1=O` (stereo not drawn) [Compound B32], the “Post-emergence herbicidal damage score, ABUTH (Abutilon theophrasti)” value is 5; the “Post-emergence herbicidal damage score, ALOMY (Alopecurus myosuroides)” value is reported as 2; the “Post-emergence herbicidal damage score, AMARE (Amaranthus retroflexus)” value worked out at 3; the “Post-emergence herbicidal damage score, ECHCG (Echinochloa crus-galli)” value is recorded as 3. In addition, the “Post-emergence herbicidal damage score, SETFA (Setaria faberi)” value came to 4 and the “Post-emergence herbicidal damage score, ZEAMX (Zea mays)” value is given as 0.
For `CCn1nc(N2C(=O)C(C)=C(Cl)C2O)cc1C(F)(F)F` (stereo not drawn) [Compound C1], the “Post-emergence herbicidal damage score, ABUTH (Abutilon theophrasti)” value stood at 3; the “Post-emergence herbicidal damage score, ALOMY (Alopecurus myosuroides)” value was 3; the “Post-emergence herbicidal damage score, AMARE (Amaranthus retroflexus)” value is listed as 5; the “Post-emergence herbicidal damage score, ECHCG (Echinochloa crus-galli)” value came out at 4. For the same molecule, the “Post-emergence herbicidal damage score, SETFA (Setaria faberi)” value was found to be 0 and the “Post-emergence herbicidal damage score, ZEAMX (Zea mays)” value is reported as 1.
For `CCn1nc(N2C(=O)C(C)=C(Cl)C2O)cc1C(C)(C)C` (stereo not drawn) [Compound C2], the “Post-emergence herbicidal damage score, ABUTH (Abutilon theophrasti)” value is given as 5; the “Post-emergence herbicidal damage score, ALOMY (Alopecurus myosuroides)” value was found to be 3; the “Post-emergence herbicidal damage score, AMARE (Amaranthus retroflexus)” value was found to be 4; the “Post-emergence herbicidal damage score, ECHCG (Echinochloa crus-galli)” value was 4. For the same molecule, the “Post-emergence herbicidal damage score, SETFA (Setaria faberi)” value is recorded as 4 and the “Post-emergence herbicidal damage score, ZEAMX (Zea mays)” value is on record as 0.
Turning to `CCn1nc(N2C(=O)C(C)=C(Cl)C2O)c2c1C(C)(C)CC2` (stereo not drawn) [Compound C3], the “Post-emergence herbicidal damage score, ABUTH (Abutilon theophrasti)” value is 5; the “Post-emergence herbicidal damage score, ALOMY (Alopecurus myosuroides)” value is on record as 4; the “Post-emergence herbicidal damage score, AMARE (Amaranthus retroflexus)” value is reported as 5; the “Post-emergence herbicidal damage score, ECHCG (Echinochloa crus-galli)” value was 5. The “Post-emergence herbicidal damage score, SETFA (Setaria faberi)” value is reported as 5 and the “Post-emergence herbicidal damage score, ZEAMX (Zea mays)” value is on record as 1.
As to `CC1=C(Cl)C(O)N(c2cc(C(F)(F)F)n(C(C)C)n2)C1=O` (stereo not drawn) [Compound C4], the “Post-emergence herbicidal damage score, ABUTH (Abutilon theophrasti)” value is on record as 0; the “Post-emergence herbicidal damage score, ALOMY (Alopecurus myosuroides)” value amounted to 0; the “Post-emergence herbicidal damage score, AMARE (Amaranthus retroflexus)” value came to 1; the “Post-emergence herbicidal damage score, ECHCG (Echinochloa crus-galli)” value was 1. Moreover, the “Post-emergence herbicidal damage score, SETFA (Setaria faberi)” value worked out at 1 and the “Post-emergence herbicidal damage score, ZEAMX (Zea mays)” value worked out at 1.
Take `CC1=C(Cl)C(O)N(c2cc(C(F)(F)F)n(CC(F)(F)F)n2)C1=O` (stereo not drawn) [Compound C5]: the “Post-emergence herbicidal damage score, ABUTH (Abutilon theophrasti)” value came to 2; the “Post-emergence herbicidal damage score, ALOMY (Alopecurus myosuroides)” value was found to be 0; the “Post-emergence herbicidal damage score, AMARE (Amaranthus retroflexus)” value turned out to be 1; the “Post-emergence herbicidal damage score, ECHCG (Echinochloa crus-galli)” value came to 0. Besides, the “Post-emergence herbicidal damage score, SETFA (Setaria faberi)” value turned out to be 0 and the “Post-emergence herbicidal damage score, ZEAMX (Zea mays)” value was 3.
With `CC1=C(Cl)C(O)N(c2cc(C)n(C(F)F)n2)C1=O` (stereo not drawn) [Compound C6], the “Post-emergence herbicidal damage score, ABUTH (Abutilon theophrasti)” value is listed as 1; the “Post-emergence herbicidal damage score, ALOMY (Alopecurus myosuroides)” value stood at 0; the “Post-emergence herbicidal damage score, AMARE (Amaranthus retroflexus)” value is on record as 2; the “Post-emergence herbicidal damage score, ECHCG (Echinochloa crus-galli)” value is 0. The “Post-emergence herbicidal damage score, SETFA (Setaria faberi)” value is 2 and the “Post-emergence herbicidal damage score, ZEAMX (Zea mays)” value turned out to be 1.
On to `CC1=C(Cl)C(O)N(c2cc(C#N)n(CC(F)(F)F)n2)C1=O` (stereo not drawn) [Compound C7], for which the “Post-emergence herbicidal damage score, ABUTH (Abutilon theophrasti)” value came to 3; the “Post-emergence herbicidal damage score, ALOMY (Alopecurus myosuroides)” value was 0; the “Post-emergence herbicidal damage score, AMARE (Amaranthus retroflexus)” value was determined as 0; the “Post-emergence herbicidal damage score, ECHCG (Echinochloa crus-galli)” value amounted to 0. Moreover, the “Post-emergence herbicidal damage score, SETFA (Setaria faberi)” value was found to be 1 and the “Post-emergence herbicidal damage score, ZEAMX (Zea mays)” value stood at 0.
Regarding `CC1=C(Cl)C(O)N(c2nn(CC(F)(F)F)c(C)c2C#N)C1=O` (stereo not drawn) [Compound C8], the “Post-emergence herbicidal damage score, ABUTH (Abutilon theophrasti)” value is given as 0; the “Post-emergence herbicidal damage score, ALOMY (Alopecurus myosuroides)” value was 0; the “Post-emergence herbicidal damage score, AMARE (Amaranthus retroflexus)” value is given as 1; the “Post-emergence herbicidal damage score, ECHCG (Echinochloa crus-galli)” value was found to be 0. For the same molecule, the “Post-emergence herbicidal damage score, SETFA (Setaria faberi)” value is 0 and the “Post-emergence herbicidal damage score, ZEAMX (Zea mays)” value is recorded as 0.
Turning to `CC1=C(Cl)C(O)N(c2cc(C)n(C(F)(F)F)n2)C1=O` (stereo not drawn) [Compound C9], the “Post-emergence herbicidal damage score, ABUTH (Abutilon theophrasti)” value turned out to be 1; the “Post-emergence herbicidal damage score, ALOMY (Alopecurus myosuroides)” value is 0; the “Post-emergence herbicidal damage score, AMARE (Amaranthus retroflexus)” value is listed as 1; the “Post-emergence herbicidal damage score, ECHCG (Echinochloa crus-galli)” value stood at 1. Besides, the “Post-emergence herbicidal damage score, SETFA (Setaria faberi)” value amounted to 0 and the “Post-emergence herbicidal damage score, ZEAMX (Zea mays)” value is 1.
Take `CC1=C(Cl)C(O)N(c2nn(C)c(C(C)(C)C)c2C#N)C1=O` (stereo not drawn) [Compound D1]: the “Post-emergence herbicidal damage score, ABUTH (Abutilon theophrasti)” value is 3; the “Post-emergence herbicidal damage score, ALOMY (Alopecurus myosuroides)” value was 2; the “Post-emergence herbicidal damage score, AMARE (Amaranthus retroflexus)” value stood at 4; the “Post-emergence herbicidal damage score, ECHCG (Echinochloa crus-galli)” value is 3. In addition, the “Post-emergence herbicidal damage score, SETFA (Setaria faberi)” value was found to be 1 and the “Post-emergence herbicidal damage score, ZEAMX (Zea mays)” value is recorded as 0.
As for `CC1=C(Cl)C(O)N(c2nn(C)c(C(C)(C)C)c2Cl)C1=O` (stereo not drawn) [Compound D2], the “Post-emergence herbicidal damage score, ABUTH (Abutilon theophrasti)” value was 3; the “Post-emergence herbicidal damage score, ALOMY (Alopecurus myosuroides)” value amounted to 1; the “Post-emergence herbicidal damage score, AMARE (Amaranthus retroflexus)” value amounted to 0; the “Post-emergence herbicidal damage score, ECHCG (Echinochloa crus-galli)” value is recorded as 2. Also, the “Post-emergence herbicidal damage score, SETFA (Setaria faberi)” value is listed as 2 and the “Post-emergence herbicidal damage score, ZEAMX (Zea mays)” value is reported as 0.
For the molecule `CC1=C(Cl)C(O)N(c2nn(C)c(C(C)(C)CCl)c2Cl)C1=O` (stereo not drawn) [Compound D3], the “Post-emergence herbicidal damage score, ABUTH (Abutilon theophrasti)” value turned out to be 1; the “Post-emergence herbicidal damage score, ALOMY (Alopecurus myosuroides)” value is 0; the “Post-emergence herbicidal damage score, AMARE (Amaranthus retroflexus)” value is reported as 0; the “Post-emergence herbicidal damage score, ECHCG (Echinochloa crus-galli)” value is 2. The “Post-emergence herbicidal damage score, SETFA (Setaria faberi)” value was 1 and the “Post-emergence herbicidal damage score, ZEAMX (Zea mays)” value is recorded as 1.
`CCCC1=C(C)C(O)N(c2nn(C)c(C(C)(C)C)c2C#N)C1=O` (stereo not drawn) [Compound D4]: the “Post-emergence herbicidal damage score, ABUTH (Abutilon theophrasti)” value worked out at 4; the “Post-emergence herbicidal damage score, ALOMY (Alopecurus myosuroides)” value was determined as 3; the “Post-emergence herbicidal damage score, AMARE (Amaranthus retroflexus)” value is reported as 2; the “Post-emergence herbicidal damage score, ECHCG (Echinochloa crus-galli)” value was 2. Further, the “Post-emergence herbicidal damage score, SETFA (Setaria faberi)” value is recorded as 4 and the “Post-emergence herbicidal damage score, ZEAMX (Zea mays)” value stood at 0.
Consider `Cn1nc(N2C(=O)C(CCl)=C(Cl)C2O)cc1C(C)(C)C` (stereo not drawn) [Compound E1], for which the “Post-emergence herbicidal damage score, ABUTH (Abutilon theophrasti)” value came out at 4; the “Post-emergence herbicidal damage score, ALOMY (Alopecurus myosuroides)” value is reported as 4; the “Post-emergence herbicidal damage score, AMARE (Amaranthus retroflexus)” value worked out at 1; the “Post-emergence herbicidal damage score, ECHCG (Echinochloa crus-galli)” value stood at 5. Further, the “Post-emergence herbicidal damage score, SETFA (Setaria faberi)” value is 5 and the “Post-emergence herbicidal damage score, ZEAMX (Zea mays)” value was determined as 0.
On to `CCCC1=C(Cl)C(O)N(c2cc(C(C)(C)C#N)n(C)n2)C1=O` (stereo not drawn) [Compound E2], for which the “Post-emergence herbicidal damage score, ABUTH (Abutilon theophrasti)” value turned out to be 4; the “Post-emergence herbicidal damage score, ALOMY (Alopecurus myosuroides)” value was found to be 4; the “Post-emergence herbicidal damage score, AMARE (Amaranthus retroflexus)” value is reported as 5; the “Post-emergence herbicidal damage score, ECHCG (Echinochloa crus-galli)” value amounted to 5. The “Post-emergence herbicidal damage score, SETFA (Setaria faberi)” value came to 4 and the “Post-emergence herbicidal damage score, ZEAMX (Zea mays)” value worked out at 1.
`CC1=C(Cl)C(OC(=O)OCC(C)C)N(c2cc(C(C)(C)C)n(C)n2)C1=O` (stereo not drawn) [Compound F1]: the “Post-emergence herbicidal damage score, ABUTH (Abutilon theophrasti)” value stood at 5; the “Post-emergence herbicidal damage score, ALOMY (Alopecurus myosuroides)” value is 4; the “Post-emergence herbicidal damage score, AMARE (Amaranthus retroflexus)” value was 5; the “Post-emergence herbicidal damage score, ECHCG (Echinochloa crus-galli)” value is listed as 5. For the same molecule, the “Post-emergence herbicidal damage score, SETFA (Setaria faberi)” value stood at 5 and the “Post-emergence herbicidal damage score, ZEAMX (Zea mays)” value is 3.
Regarding `CC1=C(Cl)C(OC(=O)Oc2ccccc2)N(c2cc(C(C)(C)C)n(C)n2)C1=O` (stereo not drawn) [Compound F2], the “Post-emergence herbicidal damage score, ABUTH (Abutilon theophrasti)” value was 5; the “Post-emergence herbicidal damage score, ALOMY (Alopecurus myosuroides)” value amounted to 4; the “Post-emergence herbicidal damage score, AMARE (Amaranthus retroflexus)” value is on record as 5; the “Post-emergence herbicidal damage score, ECHCG (Echinochloa crus-galli)” value was 5. In addition, the “Post-emergence herbicidal damage score, SETFA (Setaria faberi)” value stood at 5 and the “Post-emergence herbicidal damage score, ZEAMX (Zea mays)” value is 1.
